Measurements reported in patent publication US20210198277A1, “AMINE-SUBSTITUTED ARYL OR HETEROARYL COMPOUNDS” (Epizyme, Inc., priority 2016, published 2021).

Experiments:
[1] = target: T1, human EHMT2 913-1193 (Homo sapiens, UniProt Q96KQ7); assay: EHMT2 enzyme assay on histone peptide substrate (EHMT2 PEP); format: biochemical; details: Table VII; read-out: EHMT2 PEP IC50
T1 construct: recombinant purified human EHMT2 913-1193, Viva; purchased Viva
T1 sequence (Q96KQ7 913-1193): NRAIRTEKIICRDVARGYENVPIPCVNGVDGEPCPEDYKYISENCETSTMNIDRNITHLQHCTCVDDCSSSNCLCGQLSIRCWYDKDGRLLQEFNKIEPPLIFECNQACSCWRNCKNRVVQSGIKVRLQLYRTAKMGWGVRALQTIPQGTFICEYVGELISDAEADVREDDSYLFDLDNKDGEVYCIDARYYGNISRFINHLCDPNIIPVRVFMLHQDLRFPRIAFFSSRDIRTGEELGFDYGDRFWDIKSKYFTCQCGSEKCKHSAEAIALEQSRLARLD
Method in brief: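 Radiometric methyltransferase assay: 0.031 nM EHMT2 913-1193 preincubated 30 min with compound (10-point 3-fold series, top final 50 μM, 2% DMSO) in 20 mM Bicine pH 7.5, 1 mM TCEP. Biotinylated histone peptide methylated with ^3H-SAM for 60 min at room temperature, quenched with unlabeled SAM, captured on streptavidin Flashplates and counted.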

[2] = target: T2, EHMT1 (Homo sapiens, UniProt Q9H9B1); assay: EHMT1 enzyme assay on peptide substrate (EHMT1 PEP); format: biochemical; details: Table VII; read-out: EHMT1 PEP IC50
T2 sequence (Q9H9B1 1-1298): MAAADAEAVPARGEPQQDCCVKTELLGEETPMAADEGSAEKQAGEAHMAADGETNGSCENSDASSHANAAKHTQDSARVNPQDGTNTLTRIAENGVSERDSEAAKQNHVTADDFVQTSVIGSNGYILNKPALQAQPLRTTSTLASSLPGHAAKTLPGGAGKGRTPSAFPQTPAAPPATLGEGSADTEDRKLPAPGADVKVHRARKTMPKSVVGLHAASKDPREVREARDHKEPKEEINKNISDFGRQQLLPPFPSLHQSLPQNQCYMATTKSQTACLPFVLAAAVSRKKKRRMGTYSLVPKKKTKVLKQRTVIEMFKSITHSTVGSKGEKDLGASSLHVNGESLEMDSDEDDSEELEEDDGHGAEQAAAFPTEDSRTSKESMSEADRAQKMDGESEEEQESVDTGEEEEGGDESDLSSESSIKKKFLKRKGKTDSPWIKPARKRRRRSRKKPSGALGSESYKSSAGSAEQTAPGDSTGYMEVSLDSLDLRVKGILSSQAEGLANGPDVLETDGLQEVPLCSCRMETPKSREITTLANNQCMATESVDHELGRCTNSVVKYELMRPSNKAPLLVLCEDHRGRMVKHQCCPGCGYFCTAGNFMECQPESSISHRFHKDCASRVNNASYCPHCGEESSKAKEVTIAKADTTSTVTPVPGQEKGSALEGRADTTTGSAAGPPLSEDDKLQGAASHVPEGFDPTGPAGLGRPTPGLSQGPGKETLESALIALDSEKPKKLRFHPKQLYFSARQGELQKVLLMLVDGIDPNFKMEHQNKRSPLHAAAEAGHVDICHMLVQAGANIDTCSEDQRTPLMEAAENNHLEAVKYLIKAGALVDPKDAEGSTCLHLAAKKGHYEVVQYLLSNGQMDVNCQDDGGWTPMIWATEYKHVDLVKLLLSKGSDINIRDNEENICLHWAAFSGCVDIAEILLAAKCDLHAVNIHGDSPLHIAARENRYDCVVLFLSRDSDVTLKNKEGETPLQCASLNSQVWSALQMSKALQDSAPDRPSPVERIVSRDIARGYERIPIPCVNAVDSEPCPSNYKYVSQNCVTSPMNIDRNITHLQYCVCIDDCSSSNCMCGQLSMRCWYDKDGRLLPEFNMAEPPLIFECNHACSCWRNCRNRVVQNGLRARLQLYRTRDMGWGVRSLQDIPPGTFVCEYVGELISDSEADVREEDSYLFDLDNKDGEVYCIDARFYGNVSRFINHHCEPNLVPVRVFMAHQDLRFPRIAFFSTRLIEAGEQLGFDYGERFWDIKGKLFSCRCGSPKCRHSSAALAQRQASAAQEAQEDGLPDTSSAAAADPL

Row | Compound | IC50 [1] [nM] | IC50 [2] [nM]
1 | CNc1cc(C)nc(Nc2ccc(OC)c(CNCCN3CCC3)c2)n1 [Compound 1081] | < 100 | < 100
2 | CNc1ccnc(Nc2ccc(OC)c(OC[C@H](CN3CCCC3)OC)c2)n1 [Compound 1082] | 1000 to 10000 | 1000 to 10000
3 | CNc1ccnc(Nc2ccc(OC)c(OC[C@@H](CN3CCCC3)OC)c2)n1 [Compound 1083] | 100 to 1000 | 100 to 1000
4 | CNC[C@@H](COc1cc(Nc2nccc(NC)n2)ccc1OC)OC [Compound 1084] | > 10000 | > 10000
5 | CNc1ccnc(Nc2ccc(OC)c(OCC(C)CN3CCC3)c2)n1 (stereo not drawn) [Compound 1085] | 100 to 1000 | < 100
6 | CNCC(C)COc1cc(Nc2nccc(NC)n2)ccc1OC (stereo not drawn) [Compound 1086] | 1000 to 10000 | 1000 to 10000
7 | CNc1ccnc(Nc2ccc(OC)c(OCC[C@@H]3CCCN3)c2)n1 [Compound 1087] | 1000 to 10000 | 100 to 1000
8 | CNc1cc(C)c2cc(OC)c(OC[C@H](C)CN3CCC3)cc2n1 [Compound 1088] | < 100 | < 100
9 | CNc1cc(C)nc(Nc2cnc(OC)c(OC[C@H](O)CN3CCC3)c2)n1 [Compound 1089] | 100 to 1000 | < 100
10 | CNCC(C)NCc1cc(Nc2nc(C)cc(NC)n2)ccc1OC (stereo not drawn) [Compound 1090] | 100 to 1000 | 100 to 1000
11 | CNc1cc(C2CCOCC2)c2cc(OC)c(OCCCN3CC(O)C3)cc2n1 [Compound 1091] | 100 to 1000 | < 100
12 | CNc1ccnc(Nc2ccc(OC)c(OC[C@@H](C)CN3CCC3)c2)n1 [Compound 1092] | 1000 to 10000 | 1000 to 10000
13 | CNc1ccnc(Nc2ccc(OC)c(OC[C@H](O)CN3CCC3)c2)n1 [Compound 1093] | 100 to 1000 | < 100
14 | CNc1cc(C)nc(Nc2ccc(OC)c(CNCCN3CC[C@@H](F)C3)c2)n1 [Compound 1094] | 100 to 1000 | < 100
15 | CNCCNC(C)c1cc(Nc2nc(C)cc(NC)n2)ccc1OC (stereo not drawn) [Compound 1095] | 100 to 1000 | 100 to 1000
16 | CCN1CCC(O)(COc2cc(Nc3nccc(NC)n3)ccc2OC)C1 (stereo not drawn) [Compound 1096] | > 10000 | > 10000
17 | CNc1ccnc(Nc2ccc(OC)c(OCC3(O)CCN(C)C3)c2)n1 (stereo not drawn) [Compound 1097] | > 10000 | 1000 to 10000
18 | CNc1ccnc(Nc2cnc(OC)c(OC[C@@H]3CCN(C4CCC4)C3)c2)n1 [Compound 1098] | < 100 | < 100
19 | CNc1cc(C)nc(Nc2ccc(OC)c(OC[C@H](O)CN3CC(C)C3)c2)n1 [Compound 1099] | 100 to 1000 | < 100
20 | CNc1cc(C)nc(Nc2ccc(OC)c(OC[C@H](O)CN3CC(C)C3)c2)n1 [Compound 1100] | 100 to 1000 | 100 to 1000
21 | CNc1cc(C)nc(Nc2ccc(OC)c(CNCCN(C)C)c2)n1 [Compound 1101] | < 100 | < 100
22 | CNC[C@H](C)NCc1cc(Nc2nc(C)cc(NC)n2)ccc1OC [Compound 1102] | < 100 | < 100
23 | CNC[C@@H](C)NCc1cc(Nc2nc(C)cc(NC)n2)ccc1OC [Compound 1103] | 1000 to 10000 | 1000 to 10000
24 | CNc1cc(C)nc(Nc2ccc(OC)c(COCCN3CCCC3)c2)n1 [Compound 1104] | < 100 | < 100
25 | CNc1cc(C)nc(Nc2ccc(OC)c(COCCN(C)C)c2)n1 [Compound 1105] | 100 to 1000 | 100 to 1000
26 | CCNc1cc(C)nc(Nc2ccc(OC)c(OC[C@H](O)CN3CCCC3)c2)n1 [Compound 1106] | < 100 | < 100
27 | CNc1cc(C2CCOCC2)c2cc(OC)c(OC[C@H](O)CN3CCCC3)cc2n1 [Compound 1107] | < 100 | < 100
